Source: US7507395B2, “Methods of using fluorescent pH indicators for intracellular assays” (MDS Analytical Technologies (US) Inc., priority 2001, dated 2009)

Legend:
M1CHO cells [1] = assay: Pirenzapine inhibition of carbachol-mediated stimulation of M1CHO cells (intracellular pH); format: cell-based; details: pirenzapine 0.1, 0.3, 1.0 μM, carbachol 1 μM
Method: M1CHO Cells, 50,000, in 40 μL are seeded and incubated at 37° C., 5% CO2 overnight in a 96-well microplate. To each well is added 10 μL of the Loading Buffer (as described in Examples 19 and 20) including a fluorescein diacetate compound of the invention and a nonfluorescent quenching dye. After 45 min at room temperature 5 μL of 220 mM ammonium chloride, in combination with pirenzapine to a final concentration of 0.0 μM, 1.0 μM, 0.3 μM, and 0.1 μM. […] A drop in fluorescence signal is observed at time=10 to 20 seconds, corresponding to a drop in signal due to the increased acidification of the cells. The low pH stimulates the Na^+/H^+ exchange pump.

M1CHO cells [2] = assay: Effect of increasing concentrations of carbachol on M1CHO cells (intracellular pH); format: cell-based; details: carbachol 6.7 μM or 0 μM, after ammonium chloride
Method: M1CHO cells, 50,000, in 40 μL were seeded and incubated at 37° C., 5% CO2 overnight in a 96-well microplate. To each well is added 10 μL of the Loading Buffer (as described in Examples 19 and 20) including a fluorescein diacetate compound of the invention and a nonfluorescent quenching dye. After 45 min at room temperature, 5 μL of 220 mM ammonium chloride is added. […] A drop is fluorescence signal is observed at time=10 to 20 seconds due to the increased acidification of the cells. The low pH stimulates the Na^+/H^+ exchange pump.
For Compounds 19 and 20, emission is monitored at 550 nm and excitation is monitored at 505 and 470 nm.

[3] = background statement; cited from earlier work
[4] = pH buffer series, final concentration 1.0 μM, Gemini XS fluorescence plate reader
Excerpt: The excitation and emission spectra of the aqueous solutions are obtained with a Gemini XS fluorescence plate reader (Molecular Devices Corporation; Sunnyvale, Calif.).

MCF7/ADR cells = assay: Drug Resistance Assay: insulin on MCF7/ADR cells (intracellular pH); format: cell-based; details: 0.003-150 nM insulin, after NH4Cl acid load, FIG. 6
Method: MCF7/ADR cells are MCF7 mammary gland adenocarcinoma selected for adriamycin resistance. These cells are propagated and maintained in DMEM medium containing 5% FCS, 1× Pen/Strep, 2 mM L-glutamine, and non-essential amino acids. The assay is performed according to the following procedure.
The cells are then incubated in a 37° C. CO2 incubator overnight.
A 25 mM stock solution of a Masking Compound is prepared by dissolving an appropriate amount of the desired Masking Compound in 10 mL water.
The cell plate is removed from the incubator, and all wells are washed once with 1× Assay Buffer, leaving 40 μL of buffer in each well. The cell plate is then incubated at 37° C. for at least 4 hours.
A stock solution of insulin is prepared by dissolving 1 mg of insulin in 1 mL of 1 M HCl to a concentration of 174 μM. A 5 μL aliquot of the insulin stock solution is diluted with 4,574 μL H+H/2 mM probenecid/0.1% BSA solution (190 nM stock, 150 nM final concentration). Three-fold dilutions are performed 11 times to obtain final concentrations of 0.003, 0.008, 0.02, 0.07, 0.2, 0.6, 1.9, 5.6, 17, 50, and 150 nM, respectively.

CHO/CCR5/Galphaqi5 cells = assay: Effect of increasing concentrations of RANTES on CHO/CCR5/Galphaqi5 cells (intracellular pH); format: cell-based; details: RANTES 2-500 nM, after ammonium chloride
Method: CHO/CCR5/Galphaqi5 cells, 80,000, in 40 μL are seeded and incubated at 37° C., 5% CO2 overnight in a 96-well microplate. To each well is added 10 μL of Loading Buffer (as described in Examples 19 and 20) including a fluorescein diacetate compound of the invention and a nonfluorescent quenching dye. After 45 min at room temperature 5 μL of 220 mM ammonium chloride is added. Following an additional 15 min incubation at room temperature, 200 μL of buffer containing RANTES to a final concentration of 500, 167, 56, 19, 6, 2, or 0 nM is added using the fluidics module on a fluorescence microplate reader (10 seconds after the start of the experiment) and fluorescence readings are recorded. A drop in fluorescence signal is observed at time=10 to 20 seconds, corresponding to an increased acidification of the cells. The low pH stimulates the Na+/H+ exchange pump.

CN1CCN(CC(=O)N2c3ccccc3C(=O)Nc3cccnc32)CC1 [Pirenzapine]
effect on carbachol-mediated stimulation (M1CHO cells [1]): inhibits the carbachol-mediated stimulation

C[N+](C)(C)CCOC(N)=O [carbachol]
activity of the Na+/H+ exchange pump / alkalinization of the cells (M1CHO cells [2]): increases the activity of the pump, resulting in a greater alkalinization of the cells in a dose:dependent manner

2′,7′-bis-(2-carboxyethyl)-5-(and-6)-carboxyfluorescein [BCECF]
pKa [3]: 7.0

2′,7′-diethyl-5-(or 6-)carboxyfluorescein [Compound 4]
calculated pKa (acid dissociation constant) [4]: 6.96

insulin
activity of the Na+/H+ exchange pump / alkalinization of the cells (MCF7/ADR cells): increases the activity of the pump, resulting in a greater alkalinization of the cells in a dose-dependent manner

B1: RANTES (protein, UniProt P13501 24-91, looked up)
C-C motif chemokine 5: SPYSSDTTPCCFAYIARPLPRAHIKEYFYTSGKCSNPAVVFVTRKNRQVCANPEKKWVREYINSLEMS
notes: RANTES, added to CHO/CCR5/Galphaqi5 cells at increasing concentrations
activity of the Na+/H+ exchange pump / alkalinization of the cells (CHO/CCR5/Galphaqi5 cells): increases the activity of the pump, resulting in a greater alkalinization of the cells in a dose:dependent manner
